{"source": "patent US8937063B2", "about": "(Trustees of Tufts College, priority 2010, dated 2015)", "key": {"[1]": {"test": "Multiple administration (30 days) pharmacokinetic study in wild type mice", "assay_type": "in vivo, C57BL/6 mice", "settings": "996, 1493, 2240, 3360 mg/kg oral daily 30 days", "protocol": "Wild type C57BL/6 mice were dosed with ARI-001 in solution via oral gavage daily for 30 consecutive days. Over the course of five 24-hour periods, blood was collected, and the resultant plasma was analyzed for concentrations of ARI-001. Four doses were used: 996 mg/kg, 1493 mg/kg, 2240 mg/kg, and 3360 mg/kg. […] However, these values were time-independent, as there was no trend observed between these parameters and days of administration. See FIGS. 15A-15D and FIGS. 16A-16B."}, "[2]": {"system": "healthy adult volunteers", "test": "Human clinical trial, single escalating oral doses: triglycerides", "assay_type": "in vivo", "settings": "preliminary, FIG. 22", "protocol": "(§1) A randomized, double-blind, placebo-controlled study is performed with sequential escalating doses by cohort with observations for 30 hours post dosing and return visit on 8th day. Study subjects are healthy male and female adult volunteers, age 18-60 years, with LDL-C>130 mg/dL and weight <85 kg. Subjects are randomly assigned to receive study drug or placebo.\n(§2) Five periods of single dose escalation, with 8 subjects per cohort (6 drug: 2 placebo) involve a total 40 subjects. Appropriately blinded matching placebos are provided. Cohort 1 receives 500 mg of ARI-001 formulated as a single oral tablet, plus eleven placebo tablets; Cohort 2, 1000 mg taken as two 500 mg tablets of ARI-001, plus ten placebo tablets; Cohort 3, 2000 mg taken as four 500 mg tablets of ARI-001, plus eight placebo tablets; Cohort 4, 4000 mg taken as eight 500 mg tablets of ARI-001, plus four placebo tablets; Corhort 5, 6000 mg taken as twelve 500 mg tablets of ARI-001. Placebo-only subjects take twelve placebo tablets. Each tablet is a compressed, film-coated tablet suitable for oral administration. […]"}, "[3]": {"test": "Single-dose pharmacokinetic study PO/IP in wild type mice", "assay_type": "in vivo, C57BL/6 mice", "settings": "for AUC / Cmax / Tmax / half-life: C57BL/6, mouse plasma", "protocol": "Plasma from the 19 hamsters dosed with ARI-001 in the above described 18-day study was analyzed for concentrations of ARI-001. Concentrations were determined for these samples, which were collected 24 hours after the final dose was administered. Briefly, plasma drug concentrations for the non-GLP pharmacokinetic experiments were determined by LC-MS using an Applied Biosystems 4000Qtrap spectrometer with electrospray ionization. Samples were prepared for analysis by precipitation of plasma proteins with cold methanol. HPLC of the samples was done with an Agilent Eclipse C18 column and a methanol/water gradient containing 0.1% formic acid and 5 mM ammonium acetate. ARI-001 was detected using multiple reaction monitoring (MRM) in the positive ion mode. For quantitation, a standard curve was measured by addition of known amounts of ARI-001 to plasma from untreated animals and preparing in a manner identical to the samples from treated animals. All plasma samples were spiked with 10 ng/mL of isotope-enriched ARI-001 which served as an internal standard for the LC-MS measurements. All compound concentrations are reported in μM. For correlation analysis, plasma concentrations of ARI-001 in a given animal were paired with that same animal's lipid parameter. […] These correlations are graphed in FIG. 6 and FIG. 7. Pearson r values were determined using all data points, as was the two-tailed P-value for the data set.\nWild type C57BL/6 mice were dosed with a single administration of ARI-001 in solution either via oral gavage (PO) or via intraperitoneal injection (IP). Blood samples were then collected at various time points over a 24-hour period; plasma was then analyzed for concentrations of ARI-001 as described earlier. ARI-001 was administered at either a dose of 2240 mg/kg as a single bolus via oral gavage, or a dose of 448 mg/kg as a single bolus via intraperitoneal injection."}, "[4]": {"biological_target": "T1, GPR109A (Homo sapiens, UniProt Q8TDS4)", "T1 construct": "β-galactosidase enzyme fragment (ProLink-type complementation tag); expressed in transfected cells", "T1 sequence (Q8TDS4 whole entry, the tested form may be a part)": "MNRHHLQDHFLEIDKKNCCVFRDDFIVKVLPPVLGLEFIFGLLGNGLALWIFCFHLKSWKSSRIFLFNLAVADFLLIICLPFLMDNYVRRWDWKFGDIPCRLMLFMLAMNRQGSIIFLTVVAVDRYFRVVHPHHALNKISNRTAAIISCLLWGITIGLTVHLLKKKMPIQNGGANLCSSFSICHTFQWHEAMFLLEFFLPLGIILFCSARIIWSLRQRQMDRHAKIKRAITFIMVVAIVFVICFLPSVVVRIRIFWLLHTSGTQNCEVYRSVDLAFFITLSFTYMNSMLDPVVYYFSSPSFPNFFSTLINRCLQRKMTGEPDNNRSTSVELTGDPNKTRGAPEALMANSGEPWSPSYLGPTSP", "test": "PathHunter eXpress β-arrestin recruitment assay", "assay_type": "cell-based", "settings": "concentrations up to 10 mM, 90 minutes", "source_text": "Walters R W et al. (2009) J Clin Invest 119:1312-21. […] G protein-coupled receptor (GPCR) activity was detected by measuring the interaction of β-arrestin with the activated GPCR using […] enzyme fragment complementation."}, "[5]": {"system": "healthy adult volunteers", "test": "Human clinical trial, single escalating oral doses: flushing", "assay_type": "in vivo", "settings": "single oral doses 500 to 6000 mg; preliminary", "protocol": "as §1, §2"}, "[6]": {"system": "plasma lipids in animal models", "test": "Summary of lipid efficacy studies in animal models", "assay_type": "in vivo", "source_text": "A number of pharmacokinetic, safety, and efficacy studies for ARI-001 have been completed in a variety of animals, including mice, rats, Golden Syrian hamsters, dogs, and monkeys. Overall, results from these studies have established the following."}, "[7]": {"settings": "PO, 2240 mg/kg single bolus oral gavage"}}, "data": [{"smiles": "O=C(O)c1ccc(CCN2CCOCC2)nc1", "note": "[ARI-001]", "values": [{"measurement": "Cmax levels and AUC as a function of days of administration", "setting": "[1]", "value": "time-independent"}, {"measurement": "Cmax levels and total 24-hour exposure (AUC) as a function of dose", "setting": "[1]", "value": "dose-dependent"}, {"measurement": "change in triglycerides 4 hours after dosing", "setting": "[2]", "value": "dose response for triglyceride lowering"}, {"measurement": "AUC", "setting": "[3]; IP, 448 mg/kg single bolus", "value": 439, "unit": "µM·h"}, {"measurement": "Cmax", "setting": "[3]; IP, 448 mg/kg single bolus", "value": 450, "unit": "µM"}, {"measurement": "Tmax", "setting": "[3]; IP, 448 mg/kg single bolus", "value": 15, "unit": "min"}, {"measurement": "half-life", "setting": "[3]; IP, 448 mg/kg single bolus", "value": 30, "unit": "min"}, {"measurement": "AUC", "setting": "[3]; [7]", "value": 1100, "unit": "µM·h"}, {"measurement": "Cmax", "setting": "[3]; [7]", "value": 289, "unit": "µM"}, {"measurement": "Tmax", "setting": "[3]; [7]", "value": 30, "unit": "min"}, {"measurement": "half-life", "setting": "[3]; [7]", "value": 90, "unit": "min"}, {"measurement": "remaining plasma concentration at the 24 hour timepoint", "setting": "[3]; single dose PO 2240 mg/kg or IP 448 mg/kg", "value": "undetectable"}, {"measurement": "recruitment of β-arrestin to the membrane of cells expressing GPR109A", "setting": "[4]", "value": "failed to recruit β-arrestin"}, {"measurement": "signs of flushing", "setting": "[5]", "value": "no patients exhibited any signs of flushing"}, {"measurement": "plasma lipid changes, once daily vs same total dose twice daily", "setting": "[6]; in vivo", "value": "greater than or equal to the lipid altering effects observed with the same total dose of ARI-001 given twice daily"}, {"measurement": "lipid altering effects of once-daily dose vs niacin", "setting": "[6]; niacin at nearly 2-fold higher dose once a day", "value": "more pronounced"}]}]}
